Columns and labels:
Type in all cases: cell-based, human
CTL clone 5 = test: Chromium release cytolysis of peptide-pulsed target cells by CTL clone 5
Protocol: FIGS. 5A–5C. Characterization of the 9-mer ESO9-54 and 10-mer ESO10-53 derived from the normal open reading frame. FIG. 5A. 586EBV or 1510EBV B cells were pulsed with ESO10-53 and ESO9-54 peptides at different concentrations for 120 min. After two washes with AIM-V medium with 120 IU IL-2, CTL clone 5 (1×10^5/well) was added and incubated for 18 to 24 h. GM-CSF release by CTL clone 5 was determined by ELISA. FIG. 5B. 586mel cells were lysed by CTL clone 5, but 397mel cells were not lysed by CTL clone 5 at different E:T ratios. FIG. 5C. 586EBV and 1510EBV B cells were labeled with chromium overnight. The ESO10-53 peptide was then pulsed on the chromium-labeled 586EBV, 1510EBV, and T2 cells for 120 min. An irrelevant peptide containing an HLA-A31 peptide-binding motif was also pulsed on chromium-labeled 586EBV, 1510EBV B cells as negative controls. After peptide incubation and two washes, cytolysis of target cells by CTL clone 5 was determined in a 4-h chromium release assay. T2 pulsed with the ESO10-53 peptide was used for the specificity control.
Cytolytic assay was done as previously described (Kawakami, Y et al., 1994, Proc. Natl. Acad. Sci. USA 91:6458–62). Briefly, the target cells were labeled with chromium for 90 min. After washing three times, the cells were incubated with peptides at a concentration of 1 μg/ml for 90 min. The cells were washed again, counted, and then mixed with TIL586 or CTL clone 5 at the indicated ratio of effector: targets (E:T). Chromium release was measured after 4 h incubation. The peptides were synthesized by a solid-phase method using a peptide synthesizer (Model AMS 422, Gilson Co., Inc., Worthington, Ohio). Some peptides were purified by HPLC and had greater than 98% in purity. […] Percentage of specific lysis was determined from the equation (A−B)/(C−B)×100 where A is lysis of 586EBV B cells by TIL586 or clone 5 in the presence of a peptide, B is spontaneous release from 586EBV B cells in presence of the same peptide but in the absence of effector cells, and C is the maximum chromium release. […]

CTL clone 14 = test: T cell recognition of peptide-pulsed EBV B cells by CTL clone 14; conditions: peptide pulsed onto EBV B cells
Description: FIGS. 6A–6H. CTL clones 2 and 14 recognize the NY-ESO-1 gene, but not the ESO10-53 peptide derived from the NY-ESO-1 protein. CTL clones 2, 14 and 5 recognized NY-ESO-1 when cotransfected with HLA-A31 cDNA into COS-7 (FIG. 6A, C, E and G). TIL1244, which recognized TRP-2 But not NY-ESO-1, was used as a specificity control. FIGS. 6B, D, F and H. CTL clones 2, 5, 14, and TIL1244 recognized 586mel. […] TIL1244 recognized the TRP197-205 peptide derived from TRP-2, 586EBV B cells alone or pulsed with the ORF3P peptide from an alternative reading frame of TRP1 were negative controls. 397mel is an HLA-A31-negative, NY-ESO-1-positive tumor line.
DNA transfection and GM-CSF assay were done as previously described (Wang, R. F., P. F. Robbins, Y. Kawakami, X. Q. Kang, and S. A. Rosenberg, 1995, J. Exp. Med. 181:799–804). Briefly, […] of DNA carrying a different fragment and 50 ng of the HLA-A31 DNA were mixed with 2 μl of lipofectamine in 100 μl of serum-free DMEM for 15–45 min. The DNA/lipofectamine mixture was then added to the COS-7 (5×10^4) cells and incubated overnight. The following day, cells were washed twice with DMEM medium. […] After 18–24 h incubation, 100 μl of supernatant was collected and GM-CSF was measured in a standard ELISA assay (R+D Systems, Minneapolis, Minn.). […]

CTL clone 2 = test: Chromium release cytolysis of peptide-pulsed target cells by CTL clone 2; conditions: peptide titration, 4-h chromium release, E:T ratio of 20:1 (FIG. 7B)
Description: FIGS. 7A–7C. An alternative open reading frame of the NY-ESO-1 gene and antigenic peptides recognized by CTL. FIG. 7A. Identification of antigenic peptides from the ORF2. Thirty peptides were synthesized based on all potential ORFs and screened. Representative data are shown here. Seven peptides derived from ORF2 (see FIG. 3A) were pulsed on HLA-A31 positive 1510EBV B cells and tested for T cell recognition based on GM-CSF release ([…], SEQ ID NO: 123; […], SEQ ID NO: 124; […], SEQ ID NO: 125; […], SEQ ID NO: 46; […], SEQ ID NO: 47; […], SEQ ID NO: 126; and […], SEQ ID NO: 127). 1510 EBV alone was used as a negative control. FIG. 7B. 1510EBV B cells were labeled with chromium for 2 h. The ESORF2-10-18 peptide was then pulsed on the chromium-labeled […] (solid square) and HLA-A31-negative 1102EBV (open circle) at different concentrations. 1510EBV pulsed with ESO10-53, which was recognized by CTL clone 5, was used for the specificity control (solid triangle). After peptide incubation and three washes, cytolysis of target cells by CTL-clone 2 was determined in a 4-h chromium release assay at an E:T ratio of 20:1. FIG. 7C. Several tumor lines and fresh breast tumors were tested for recognition by CTL clone 2 to determine whether the ORF2 is translated in different tumors. 1510EBV B cells pulsed with […] (SEQ ID NO: 25) (ESO10-53), […] (SEQ ID NO: 47) (ORF2-10-18), or alone were included to evaluate the reactivity and specificity of CTL clone 2 and 5. […]
Cytolytic assay was done as previously described (Kawakami, Y et al., 1994, Proc. Natl. Acad. Sci. USA 91:6458–62). […] The cells were washed again, counted, and then mixed with TIL586 or CTL clone 5 at the indicated ratio of effector: targets (E:T). Chromium release was measured after 4 h incubation. […] Percentage of specific lysis was determined from the equation (A−B)/(C−B)×100 where A is lysis of 586EBV B cells by TIL586 or clone 5 in the presence of a peptide, B is spontaneous release from 586EBV B cells in presence of the same peptide but in the absence of effector cells, and C is the maximum chromium release. […]

ASGPGGGAPR (listed as Homo sapiens) [ESO10-53]
Lysis of peptide-incubated 586EBV or 1510EBV by CTL clone 5 (CTL clone 5; E:T ratio of 2.5:1, 4-h chromium release): 5–10%
Lysis of peptide-incubated 586EBV or 1510EBV by CTL clone 5 (CTL clone 5; E:T ratio of 40:1, 4-h chromium release): > 60%
Lysis of HLA-A31-negative T2 cells pulsed with peptide by CTL clone 5 (CTL clone 5; T2 cells, specificity control (FIG. 5C)): nor did it lyse
Recognition by CTL clone 14, in words (CTL clone 14): did not recognize
Recognition by CTL clone 14, in words (CTL clone 14; listed as ESO 10-53): failed to recognize
Lysis of peptide-pulsed 1510EBV by CTL clone 2 (CTL clone 2): failed to lyse

— US7084239B1, “Cancer peptides of NY-ESO-1/CAG-3” (The United States of America as represented by the …, priority 1997, dated 2006)
